# Test results from ChEMBL document CHEMBL1201862, “PubChem BioAssay data set” (2004).
#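 A five-concentration, 48-hour dose response in 96-well plates underlies each endpoint, interpolated linearly between surrounding concentrations. The concentration for 50% growth inhibition is given as GI50.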 The source made the active and inactive calls. Rule as the data show it: active = GI50 up to about 1.1 µM and inactive = higher.
# Assays:
# Test in all cases: DTP human tumour cell line panel, 48 h
# [1] = system: 786-0
# [2] = system: A498
# [3] = system: A549
# [4] = system: ACHN
# [5] = system: CAKI-1
# [6] = system: CCRF-CEM
# [7] = system: COLO 205
# [8] = system: DLD-1
# [9] = system: DMS-114
# [10] = system: DMS-273
# [11] = system: EKVX
# [12] = system: HCC 2998
# [13] = system: HCT-116
# [14] = system: HCT-15
# [15] = system: HL-60
# [16] = system: HOP-62
# [17] = system: HT-29
# [18] = system: IGROV-1
# [19] = system: K562
# [20] = system: KM12
# [21] = system: LOX IMVI
# [22] = system: LXFL 529
# [23] = system: M14
# [24] = system: M19-MEL
# [25] = system: MOLT-4
# [26] = system: Malme-3M
# [27] = system: NCI-H226
# [28] = system: NCI-H23
# [29] = system: NCI-H460
# [30] = system: NCI-H522
# [31] = system: OVCAR-3
# [32] = system: OVCAR-4
# [33] = system: OVCAR-5
# [34] = system: OVCAR-8
# [35] = system: RPMI-8226
# [36] = system: SF-268
# [37] = system: SF-295
# [38] = system: SF-539
# [39] = system: SK-MEL-28
# [40] = system: SK-MEL-2
# [41] = system: SK-MEL-5
# [42] = system: SK-OV-3
# [43] = system: SN12C
# [44] = system: SNB-19
# [45] = system: SNB-75
# [46] = system: SR
# [47] = system: SW-620
# [48] = system: TK-10
# [49] = system: U-251
# [50] = system: UACC-257
# [51] = system: UACC-62
# [52] = system: UO-31
# [53] = system: HOP-18
# [54] = system: KM-20L2
# [55] = system: SNB-78
# [56] = system: HOP-92
# [57] = system: RXF 393
compound,measurement,setting,value
CCOC(=O)C(Cc1ccccc1)NC(=O)c1ccc(/N=N/N(C)C)cc1 (stereo not given),GI50,[1],> 100 µM (inactive)
same,GI50,[2],> 100 µM (inactive)
same,GI50,[3],> 100 µM (inactive)
same,GI50,[4],> 100 µM (inactive)
same,GI50,[5],> 100 µM (inactive)
same,GI50,[6],> 100 µM (inactive)
same,GI50,[7],> 100 µM (inactive)
same,GI50,[8],> 100 µM (inactive)
same,GI50,[9],> 100 µM (inactive)
same,GI50,[10],> 100 µM (inactive)
same,GI50,[11],> 100 µM (inactive)
same,GI50,[12],> 100 µM (inactive)
same,GI50,[13],> 100 µM (inactive)
same,GI50,[14],> 100 µM
same,GI50,[15],> 100 µM (inactive)
same,GI50,[16],> 100 µM (inactive)
same,GI50,[17],> 100 µM (inactive)
same,GI50,[18],> 100 µM (inactive)
same,GI50,[19],> 100 µM (inactive)
same,GI50,[20],> 100 µM (inactive)
same,GI50,[21],> 100 µM (inactive)
same,GI50,[22],> 100 µM (inactive)
same,GI50,[23],> 100 µM (inactive)
same,GI50,[24],> 100 µM (inactive)
same,GI50,[25],> 100 µM (inactive)
same,GI50,[26],> 100 µM (inactive)
same,GI50,[27],> 100 µM (inactive)
same,GI50,[28],> 100 µM (inactive)
same,GI50,[29],> 100 µM (inactive)
same,GI50,[30],> 100 µM (inactive)
same,GI50,[31],> 100 µM (inactive)
same,GI50,[32],> 100 µM (inactive)
same,GI50,[33],> 100 µM (inactive)
same,GI50,[34],> 100 µM (inactive)
same,GI50,[35],> 100 µM (inactive)
same,GI50,[36],> 100 µM (inactive)
same,GI50,[37],> 100 µM (inactive)
same,GI50,[38],> 100 µM (inactive)
same,GI50,[39],> 100 µM (inactive)
same,GI50,[40],> 100 µM (inactive)
same,GI50,[41],> 100 µM (inactive)
same,GI50,[42],> 100 µM (inactive)
same,GI50,[43],> 100 µM (inactive)
same,GI50,[44],> 100 µM (inactive)
same,GI50,[45],> 100 µM (inactive)
same,GI50,[46],> 100 µM (inactive)
same,GI50,[47],> 100 µM (inactive)
same,GI50,[48],> 100 µM (inactive)
same,GI50,[49],> 100 µM (inactive)
same,GI50,[50],> 100 µM (inactive)
same,GI50,[51],> 100 µM (inactive)
same,GI50,[52],> 100 µM (inactive)
CO[C@H](/C(C)=C/C=C/C(C)=C/c1coc(C)n1)[C@H](C)[C@H]1C[C@@H](O)[C@@]2(C)O[C@H]2/C=C/[C@@H](C)[C@@H]2C[C@@H](CC(=O)O2)C[C@H]2O[C@@H]2C(=O)O1,GI50,[3],< 0.01 µM (active)
same,GI50,[7],< 0.01 µM (active)
same,GI50,[8],0.0147 µM (active)
same,GI50,[9],< 0.01 µM (active)
same,GI50,[10],< 0.01 µM (active)
same,GI50,[11],2.03e-06 µM (active)
same,GI50,[12],< 0.01 µM (active)
same,GI50,[53],0.05 µM (active)
same,GI50,[17],0.0133 µM (active)
same,GI50,[19],< 0.01 µM (active)
same,GI50,[54],< 0.01 µM (active)
same,GI50,[22],< 0.01 µM (active)
same,GI50,[24],< 0.0236 µM (active)
same,GI50,[26],< 0.01 µM (active)
same,GI50,[32],5.18e-06 µM (active)
same,GI50,[33],0.000384 µM (active)
same,GI50,[40],< 0.01 µM (active)
same,GI50,[42],1.03e-06 µM (active)
same,GI50,[45],< 0.0271 µM (active)
same,GI50,[46],< 0.01 µM (active)
same,GI50,[48],3.21e-06 µM (active)
same,GI50,[50],< 0.0283 µM (active)
same,GI50,[51],< 0.01 µM (active)
CCOC(=O)C1=C(C)N(C2OC(COC(=O)c3ccccc3)C(OC(=O)c3ccccc3)C2OC(=O)c2ccccc2)C(=S)NC1c1ccccc1 (stereo not given),GI50,[2],28.2 µM (inactive)
same,GI50,[3],37.4 µM (inactive)
same,GI50,[4],25.1 µM (inactive)
same,GI50,[5],24.4 µM (inactive)
same,GI50,[6],23.1 µM (inactive)
same,GI50,[7],33.6 µM (inactive)
same,GI50,[8],38.9 µM (inactive)
same,GI50,[9],19 µM (inactive)
same,GI50,[11],6.79 µM (inactive)
same,GI50,[12],49.2 µM (inactive)
same,GI50,[13],29.9 µM (inactive)
same,GI50,[15],14.4 µM (inactive)
same,GI50,[53],16.7 µM (inactive)
same,GI50,[16],> 100 µM (inactive)
same,GI50,[17],50.6 µM (inactive)
same,GI50,[18],46.8 µM (inactive)
same,GI50,[19],17.1 µM (inactive)
same,GI50,[54],43.6 µM (inactive)
same,GI50,[20],50.2 µM (inactive)
same,GI50,[21],58.9 µM (inactive)
same,GI50,[22],27.2 µM (inactive)
same,GI50,[23],25.7 µM (inactive)
same,GI50,[24],33.1 µM (inactive)
same,GI50,[25],16.1 µM (inactive)
same,GI50,[26],25.5 µM (inactive)
same,GI50,[27],31.1 µM (inactive)
same,GI50,[28],29.1 µM (inactive)
same,GI50,[29],31.4 µM (inactive)
same,GI50,[30],22.1 µM (inactive)
same,GI50,[31],21.9 µM (inactive)
same,GI50,[32],29.4 µM (inactive)
same,GI50,[33],61.7 µM (inactive)
same,GI50,[34],44.4 µM (inactive)
same,GI50,[35],16.1 µM (inactive)
same,GI50,[36],44.6 µM (inactive)
same,GI50,[37],61.7 µM (inactive)
same,GI50,[38],54.8 µM (inactive)
same,GI50,[39],49.2 µM (inactive)
same,GI50,[40],64.3 µM (inactive)
same,GI50,[41],18.4 µM (inactive)
same,GI50,[42],60.1 µM (inactive)
same,GI50,[43],40.4 µM (inactive)
same,GI50,[44],55.1 µM (inactive)
same,GI50,[45],30.4 µM (inactive)
same,GI50,[55],31.8 µM (inactive)
same,GI50,[46],20 µM (inactive)
same,GI50,[47],33.3 µM (inactive)
same,GI50,[49],34.9 µM (inactive)
same,GI50,[50],33.5 µM (inactive)
same,GI50,[51],29.3 µM (inactive)
same,GI50,[52],24.2 µM (inactive)
COC(=O)C1=CCC2c3[nH]c4ccccc4c3CCN2C1 (stereo not given),GI50,[1],> 354 µM (inactive)
same,GI50,[3],> 354 µM (inactive)
same,GI50,[4],> 354 µM (inactive)
same,GI50,[5],> 354 µM (inactive)
same,GI50,[6],> 354 µM (inactive)
same,GI50,[7],> 354 µM (inactive)
same,GI50,[8],> 354 µM (inactive)
same,GI50,[9],> 354 µM (inactive)
same,GI50,[10],> 354 µM (inactive)
same,GI50,[11],343 µM (inactive)
same,GI50,[12],> 354 µM (inactive)
same,GI50,[13],242 µM (inactive)
same,GI50,[14],> 354 µM
same,GI50,[15],> 354 µM (inactive)
same,GI50,[16],> 354 µM (inactive)
same,GI50,[56],> 354 µM (inactive)
same,GI50,[17],> 354 µM (inactive)
same,GI50,[18],> 354 µM (inactive)
same,GI50,[19],> 354 µM (inactive)
same,GI50,[54],> 354 µM (inactive)
same,GI50,[20],> 354 µM (inactive)
same,GI50,[21],> 354 µM (inactive)
same,GI50,[22],> 354 µM (inactive)
same,GI50,[24],> 354 µM (inactive)
same,GI50,[25],> 354 µM (inactive)
same,GI50,[26],> 354 µM (inactive)
same,GI50,[27],203 µM (inactive)
same,GI50,[28],> 354 µM (inactive)
same,GI50,[29],> 354 µM (inactive)
same,GI50,[30],154 µM (inactive)
same,GI50,[31],275 µM (inactive)
same,GI50,[34],> 354 µM (inactive)
same,GI50,[35],> 354 µM (inactive)
same,GI50,[57],> 354 µM (inactive)
same,GI50,[36],> 354 µM (inactive)
same,GI50,[37],> 354 µM (inactive)
same,GI50,[38],> 354 µM (inactive)
same,GI50,[39],> 354 µM (inactive)
same,GI50,[40],> 354 µM (inactive)
same,GI50,[41],> 354 µM (inactive)
same,GI50,[42],> 354 µM (inactive)
same,GI50,[43],> 354 µM (inactive)
same,GI50,[44],193 µM (inactive)
same,GI50,[46],> 354 µM (inactive)
same,GI50,[47],> 354 µM (inactive)
same,GI50,[48],> 354 µM (inactive)
same,GI50,[49],> 354 µM (inactive)
same,GI50,[50],169 µM (inactive)
same,GI50,[51],> 354 µM (inactive)
